Reference: US4889871A, “Alkoxy-substituted dihydrobenzopyran-2-carboxylate derivatives” (G. D. Searle & Co., priority 1988, dated 1989)
Like-named read-outs stand apart in the source and are kept apart here.

Tests used:
[1] = target: T1, guinea pig ileum (Cavia porcellus, UniProt Q2NNR5); assay: LTD4 antagonism in guinea pig ileum (contraction)
T1 construct: from tissue; host or cells: guinea pig ileum segments
T1 sequence (Q2NNR5 1-340): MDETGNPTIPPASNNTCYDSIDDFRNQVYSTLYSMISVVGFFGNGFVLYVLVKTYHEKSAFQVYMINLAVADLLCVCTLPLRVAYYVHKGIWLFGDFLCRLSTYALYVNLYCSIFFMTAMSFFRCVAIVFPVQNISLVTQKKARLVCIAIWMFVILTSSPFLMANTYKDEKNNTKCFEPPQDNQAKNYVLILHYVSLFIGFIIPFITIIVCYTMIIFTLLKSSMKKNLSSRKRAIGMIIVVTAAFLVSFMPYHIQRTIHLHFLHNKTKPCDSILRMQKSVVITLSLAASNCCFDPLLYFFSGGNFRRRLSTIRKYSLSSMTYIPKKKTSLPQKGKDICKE
Description: Fresh segments of guinea pig ileum were suspended in 2 ml. tissue baths containing oxygenated modified Tyrodes solution. […] The ileum segments were washed and rested between exposures to agonist. Following this, the tissues were incubated with a single concentration of test compound and the agonist dose-response procedure was repeated. The dose ration is a measure of the antagonist's ability to shift the agonist dose-response curve to the right. It is derived as the concentration of agonist necessary to reach a given response level in the present (A') versus the absence (A) of antagonist. For example, if the test concentration of compound had no effect on the agonist-induced response (A'=A) the dose-ratio would approximate 1. […] One dose-ratio value is determined for each strip of ileum used to test antagonist. […] Schild analysis examines the linearity of the function described by the dose-ratios written as log (A'/A) versus antagonist concentration. If linearity is confirmed and the slope approximates -1, inhibition is considered to be competitive. […] This value is considered to be a measure of the affinity of the competitive antagonist.

[2] = target: T2, LTD4 receptor (Cavia porcellus, UniProt Q2NNR5); assay: LTD4 receptor binding assay using guinea pig lung membrane preparations
T2 construct: from tissue; host or cells: lung membranes of male Hartley guinea pigs
T2 sequence (Q2NNR5 1-340): T1 sequence (Q2NNR5 1-340)
Description: MEMBRANE PREPARATIONS: For each membrane preparation, 10-11 male Hartley guinea pigs, weighing less than 350 gm, were sacrificed by guillotine. The lungs were rapidly removed and placed in ice-cold 50 mM Trisma 7.0 buffer. After all the lungs were collected, each was probed free of bronchial tissue to at least the level of tertiary branching as observed through a dissecting lamp. The tissue was minced with a razor blade on a damp paper towel and placed into fresh ice-cold Trisma 7.0 buffer. When all the tissues had been processed, they were pooled, drained and weighed. Nine volumes of cold buffer were added and the tissue was polytroned for 6-10 second bursts with a 1 minute cool down period in an ice bath between each burst. The homogenate was filtered through a gauze pad and centrifuged at 1085× g for 15 minutes at 4° C. Supernatants were saved and centrifuged at 40,000× g for 20 minutes at 4° C. This time, supernatants were discarded and the pellets were resuspended in 30-35 ml fresh Trisma 7.0 buffer by 1-10 second bursts with the polytron. The materials were centrifuged again at 40,000× g. Supernatants were again discarded. Each pellet was resuspended again with approximately 7 ml buffer. All this material was pooled into a 100 ml polypropylene container and stirred with a magnetic stirring bar. The tubes were rinsed with small amounts of buffer and the rinse was added to the membrane preparation. The homogenized membranes were aliquoted into 1.5 ml microfuge tubes and frozen at -70° C. Three aliquots were submitted for protein determinations by FPB (fluorescamine protein binding) assay.
Unless otherwise indicated, all binding experiments were performed in a final incubation volume of 250 μl. […] Both materials were received in solutions. […] Both solutions were brought to appropriate assay concentrations by dilution in assay buffer consisting of 50 mM Trisma 7.4 with 5 mM L-cysteine and 20 mM CaCl2. Membranes were also diluted with this assay buffer. […] Diluent was added to all other appropriate control tubes. Incubations were conducted for 30 minutes at 25° C. in a shaking water bath. Termination of the reaction was achieved by pouring the incubate over 2.5 cm Whatman GF/C filters soaked in assay buffer and set over the ports of Millipore filter vacuum manifolds. Filters were rinsed with 4 ml ice cold assay buffer 3 times. The filters were removed, placed in 10 ml Aquasol scintillation cocktail and allowed to cool in the dark for 2 hours prior to counting. All samples were corrected for background and isotope decay before converting DPM determination to mass.
These values were logit-transformed and linear regression was performed on the dose-response data. All dose-response sets used to calculate IC50 values contained data from 3-6 compound concentrations. […] IC50 values were calculated from the regression equation for the line.
male guinea pig lung homogenate which was aliquoted and stored at
-70° C. The particular preparation used to test the compounds of
Protein concentrations in these assays were adjusted
to provide aproximately 0.1 nM receptor in the presence of lnM ^3
HLTD4. Incubation was conducted for 30 min.
at 24° C. and filtration methods were used to separate bound from
tested were intially solubilized in DMSO. Each compound was evaluated at
dose of 10 μM (10^-5 M) in triplicate in 2 separate assays. The

In the case of `CCCc1c(OCCCOc2ccc(C(C)=O)c(OC)c2CCC)ccc2c1OC(C(=O)O)CC2` (stereo not drawn) [Example 1, 7-[3-(4-acetyl-3-methoxy-2-propylphenoxy)propoxy]-3,4-dihydro-8-propyl-2H-1-benzopyran-2-carboxylic acid], the Kb ([1]; read-out: Guinea Pig Ileum Contraction pA2 (converted)) is reported as ≥ 316 nM, the “less active as an LTD4 antagonist in the guinea pig ileum smooth muscle contraction test” value ([1]; relative to Compound III where --OCH3 is replaced with --OH) is reported as “at least 10 ×” and the “Receptor Binding LTD4 IC50” value ([2]; Table 1, results are from Table 3, 10^-5 M) is reported as “Inactive”. The inhibition at 10 µM ([2]; read-out: LTD4 Receptor Binding Activity) was < 45%, the inhibition at 10 µM ([2]; read-out: LTD4 Receptor Binding Percent Inhibition, Test #1, triplicate, 30 min, 24° C.) was 4.07% and the inhibition at 10 µM ([2]; read-out: LTD4 Receptor Binding Percent Inhibition, Test #2, triplicate, 30 min, 24° C.) was 16.4%.
